Results: patent EP2161029A1, “Composition comprising peptides” (Unilever N.V., priority 2008, dated 2010)
Peptide text beside a SMILES is read from it.

Procedure: The pH of simulated gastric fluid (SGF, 0.15 M NaCl, pH 2.5) was increased to 7.5 with […] (40 mM), and the following compounds were added to adjust the pH to 6.8 and simulate a duodenal-jejunal environment and create simulated small intestinal fluid (SIF): (i) a bile salt mixture containing equimolar quantities (0.125 M) of sodium taurocholate and glycodeoxycholic acid in NaHC03 (1 M), (ii) solutions of pancreatin from porcine pancreas (9 mg/mL) in water was prepared and added at approximately physiological ratios. The pH was adjusted to 6.8 with HCl (0.1 M). Peptides were dissolved in SIF at a final peptide concentration of 50 µM. Aliquots (1 mL) were prepared for sampling at different time points. Simulated intestinal digestion was carried out at 37°C, and aliquots (1 mL) were taken at 0, 5, 15, and 60 min after the start of the experiment. After peptide hydrolysis, digestive enzymes were inactivated at 95°C for 15 min and samples were cooled immediately on ice water and stored at -20 °C until further analysis.
Quantification of dipeptides derived from digestion were performed using a liquid chromatography multiple reaction ion monitoring-mass spectrometry (LC-MRM-MS) method as described van Platerink CJ, Janssen HG, Horsten R, Haverkamp J. Quantification of ACE inhibiting peptides in human plasma using high performance liquid chromatography-mass spectrometry. J Chromatogr B Analyt Technol Biomed Life Sci 2006,830:151-157. Peptide separation was performed on an Atlantis Hilic Silica column (2.1 x 150 mm, 3 µm particle size) and a Micromass Quattro-II (Milford MA, USA) with HP1100LC system (Hewlett-Packard, USA). The gradient started at 100% 0.1% trifluoro acetic acid in Milli-Q water and ended at 70% 0.1 % trifluoro acetic acid in acetonitrile. To support the ionization, a 70/30 mixture of propionic acid and propanol-2 was added postcolumn at a flow rate of 50 mL·min-1. All analyses were conducted on an Alliance 2795 HPLC (Waters, Milford MA, USA) combined with a Quattro Premier triple quadrupole mass spectrometer from the same supplier.
An intestinal stability data set consisting of 228 dipeptides was generated based on the results from the simulated digestion experiments. The area under the time - peptide concentration curve was calculated and used for further analysis and modelling. An ACE inhibitory dipeptide database consisting of 228 dipeptides was constructed.
For each peptide the relative stability (in % of initial dipeptide concentration) was plotted against time and the area under the curve (AUC) was calculated.

SMILES	Stability observed AUC	AUC [units]	intestinal stability (in words)
CC(C)[C@H](NC(=O)CN)C(=O)O [GV, Gly-Val] (H-Gly-Val-OH)	–	> 5900	–
N=C(N)NCCC[C@H](NC(=O)CN)C(=O)O [Gly-Arg] (H-Gly-Arg-OH)	4622±1283	–	–
NCC(=O)N[C@@H](CC(N)=O)C(=O)O [GN] (H-Gly-Asn-OH)	–	–	high intestinal stability
O=C(O)[C@H](Cc1c[nH]c2ccccc12)NC(=O)[C@@H]1CCCN1 [PW] (H-Pro-Trp-OH)	–	–	high intestinal stability
NCC(=O)N[C@@H](CS)C(=O)O [GC] (H-Gly-Cys-OH)	–	–	high intestinal stability
N[C@@H](CC(=O)O)C(=O)N1CCC[C@H]1C(=O)O [DP, Asp-Pro] (H-Asp-Pro-OH)	–	> 5900	–
N[C@@H](CO)C(=O)N1CCC[C@H]1C(=O)O [Ser-Pro] (H-Ser-Pro-OH)	4887±639	–	most intestinal stable dipeptide
C[C@H](NC(=O)CN)C(=O)O [GA, Gly-Ala] (H-Gly-Ala-OH)	–	> 5900	–

Other lines, results leading:

Stability observed AUC	AUC [units]	intestinal stability (in words)	SMILES
4187±399	–	–	N[C@@H](Cc1ccc(O)cc1)C(=O)N1CCC[C@H]1C(=O)O [Tyr-Pro] (H-Tyr-Pro-OH)
265±10	–	–	NC(N)=NCCC[C@H](N)C(=O)N[C@@H](Cc1c[nH]c2ccccc12)C(=O)O [Arg-Trp] (H-Arg-Trp-OH)
240±12	–	–	NC(=O)C[C@H](N)C(=O)N[C@@H](Cc1ccc(O)cc1)C(=O)O [Asn-Tyr] (H-Asn-Tyr-OH)
–	–	high intestinal stability	N[C@@H](CC(=O)O)C(=O)N[C@@H](Cc1c[nH]c2ccccc12)C(=O)O [DW] (H-Asp-Trp-OH)
4593±1930	–	–	C[C@H](NC(=O)[C@@H](N)Cc1ccc(O)cc1)C(=O)O [Tyr-Ala]
4606±129	–	–	N[C@@H](Cc1c[nH]c2ccccc12)C(=O)N1CCC[C@H]1C(=O)O [Trp-Pro] (H-Trp-Pro-OH)
373±27	–	–	CC(C)[C@H](N)C(=O)N[C@@H](Cc1ccc(O)cc1)C(=O)O [Val-Tyr] (H-Val-Tyr-OH)
4280±721	–	–	N[C@@H](Cc1c[nH]c2ccccc12)C(=O)NCC(=O)O [Trp-Gly] (H-Trp-Gly-OH)
4812±901	–	–	NC(=O)C[C@H](NC(=O)[C@@H](N)Cc1c[nH]c2ccccc12)C(=O)O [Trp-Asn] (H-Trp-Asn-OH)
2934±800	–	–	N[C@@H](Cc1c[nH]c2ccccc12)C(=O)N[C@@H](Cc1c[nH]cn1)C(=O)O [Trp-His] (H-Trp-His-OH)
3384±475	–	high stability	N[C@@H](Cc1ccc(O)cc1)C(=O)NCC(=O)O [Tyr-Gly]
